Several values for one entry are separate records, joined by “and”; a condition that tells them apart may be missing. Equal values may be shown once. Entries after “also recorded” stand apart in the source; their conditions may differ. Read-outs that look alike come from different tables or passages of the source.
Key:
[1] = target: T1, human cannabinoid type-1 receptor (hCB1) (Homo sapiens, UniProt P21554); format: cell-based
T1 construct: expressed in transfected cells

GFP-rat CB1 receptor = target: T2, GFP-rat CB1 receptor (Rattus norvegicus, UniProt P20272); assay: Receptor internalization (puncta count) in GFP-rat CB1 HEK293 cells; format: cell-based; settings: 20-120 min
T2 construct: expressed in transfected cells
Description: (§1) Vendor authenticated human embryonic kidney (HEK293; American Type Culture Collection, Rockville, MD) cells were cultured in 5% fetal bovine serum (FBS) defined (Hyclone Labs, Logan, UT) in Dulbecco's modified Eagle's medium (DMEM; Corning Cellgro, Manassas, VA) at 37°C and 5% CO2. Cell lines were generated as previously described[32] by transfection of the untagged hCB1 or N-terminally green fluorescent protein (GFP)-tagged rat CB1 receptor with Lipofectamine 2000 (Life Technologies, Gaithersburg, MD). Cells were maintained in a culture medium with geneticin (0.5 mg/mL; G418) and not used after 25 passages.
(§2) Cells were plated in poly-D-lysine (PDL)-coated 6-well plates or 100-mm dishes (for fractionation experiments) to a confluency of ∼70–80% and serum starved for 24 h before all treatments. For internalization experiments, cells were plated on PDL-coated cover-slips in a 24-well format. For experiments examining Gi/o protein mediation, cells were exposed to PTX (200 ng/mL) for 18 h before drug treatment when appropriate.
For internalization experiments, GFP-rat CB1 HEK293 cells were plated on PDL-coated cover-slips in the 24-well format and treated with vehicle (0.2% DMSO), CP55,940 (1 μM), Org27569 (10 μM), or both for 20–120 min. Cell images were taken blinded, converted to grayscale in Photoshop CS5, and then analyzed in ImageJ. Background was subtracted by using a “rolling ball” algorithm (rolling=3). Puncta within the range (size=3–400, circularity=0.01–1.00) were counted. These parameters were used based on image resolution and brightness. The same conditions were applied to all the images and image analyses.

[2] = target: T1, human cannabinoid type-1 receptor (hCB1); assay: Subcellular fractionation: phospho-ERK in nuclear-enriched and cytosolic fractions of hCB1 HEK293 cells; format: cell-based; settings: Org27569 10 μM, 20 min, normalized to beta-actin
Description: as §2
Cells were treated by application of vehicle or antagonist followed immediately by application of vehicle or agonist and incubated in serum-free DMEM at 37°C for times indicated, then washed once with ice-cold phosphate-buffered saline (PBS), and lysed with buffer containing HEPES (50 mM), NaCl (150 mM), EDTA (1 mM), EGTA (1 mM), glycerol (10%), Triton X-100 (1%), MgCl2 (10 μM), NaF (25 mM), Na3VO4 (1 mM), para-nitrophenyl phosphate (20 mM) and EDTA-free protease inhibitor. Lysates were incubated on ice for 30 min, then centrifuged at 16,000 g for 30 min at 4°C, and supernatants were collected.
Cells were grown and treated as described above on 100-mm dishes and washed once with ice-cold PBS. […]
The initial S1 fraction was centrifuged at 10,000 g for 10 min and the resulting S2 fraction served as the cytosolic/membrane fraction. Protein was determined by the NanoDrop™ A280 assay (Thermo Scientific, Wilmington, DE). […]

CB1 = tested on: CB1; set-up: method as in PMID 26044547; settings: Chinese hamster ovary cells, AlphaScreen SureFire kit; cited from earlier work
[3] = tested on: hCB1-untransfected HEK293 cells; assay: phospho-ERK1/2 western blot in hCB1-untransfected HEK293 cells; format: cell-based, human; settings: Org27569 10 μM, 20-min treatment
Description: as §1, with “passages. […]” for “passages.”
Protein amount (20 μg) was determined by the Bradford method, separated by 10% SDS-PAGE, and transferred to nitrocellulose membranes. […]
Membranes were rinsed thrice in 0.1% Tween-20 in PBS before incubating with LiCor secondary antibodies (IRDye® 800CW Goat anti-Mouse; 1:6666; IRDye 680RD Goat anti-Rabbit; 1:10,000) at room temperature for 1 h. Blots were imaged using LiCor Odyssey imaging software, and phospho-ERK signal was normalized to total ERK and data expressed as percent of vehicle control. […]
Data were normalized as percent vehicle control and analyzed by one- or two-way ANOVA with Newman–Keuls and Bonferroni post hoc tests, and data were considered significant with p<0.05. […]

T1 sequence (P21554 whole entry): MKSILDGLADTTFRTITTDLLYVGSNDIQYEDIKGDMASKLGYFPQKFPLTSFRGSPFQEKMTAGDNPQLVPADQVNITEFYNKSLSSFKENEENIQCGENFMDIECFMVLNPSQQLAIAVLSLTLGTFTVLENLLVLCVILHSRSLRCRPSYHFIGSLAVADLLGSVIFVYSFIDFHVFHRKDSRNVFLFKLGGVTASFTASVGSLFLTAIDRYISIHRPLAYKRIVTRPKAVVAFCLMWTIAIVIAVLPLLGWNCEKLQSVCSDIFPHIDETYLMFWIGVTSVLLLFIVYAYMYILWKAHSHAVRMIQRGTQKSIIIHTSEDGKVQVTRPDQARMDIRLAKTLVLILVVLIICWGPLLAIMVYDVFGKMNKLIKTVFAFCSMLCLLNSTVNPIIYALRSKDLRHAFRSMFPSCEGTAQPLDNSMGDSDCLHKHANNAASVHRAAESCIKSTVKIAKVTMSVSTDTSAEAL
T2 sequence (P20272 whole entry): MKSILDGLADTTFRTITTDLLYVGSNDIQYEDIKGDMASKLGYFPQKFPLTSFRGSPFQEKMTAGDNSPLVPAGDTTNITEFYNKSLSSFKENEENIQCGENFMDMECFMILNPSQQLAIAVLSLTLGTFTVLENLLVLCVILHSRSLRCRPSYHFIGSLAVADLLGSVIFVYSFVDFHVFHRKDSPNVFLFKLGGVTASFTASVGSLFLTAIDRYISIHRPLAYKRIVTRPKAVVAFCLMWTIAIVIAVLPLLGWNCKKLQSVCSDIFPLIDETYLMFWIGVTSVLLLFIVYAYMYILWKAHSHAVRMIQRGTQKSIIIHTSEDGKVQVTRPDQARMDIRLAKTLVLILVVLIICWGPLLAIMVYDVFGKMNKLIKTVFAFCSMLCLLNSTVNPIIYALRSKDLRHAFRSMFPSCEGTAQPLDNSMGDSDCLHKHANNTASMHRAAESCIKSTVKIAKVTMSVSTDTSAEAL

CCCCCCC(C)(C)c1ccc([C@@H]2C[C@H](O)CC[C@H]2CCCO)c(O)c1 [CP55,940]
EC80 for ERK activation [1]: 6.1 nM
effect on ERK phosphorylation, agonist alone [1]: robust increase in ERK phosphorylation
receptor internalization (puncta), agonist alone (GFP-rat CB1 receptor; CP55,940 1 μM): increases in puncta

CCc1c(C(=O)NCCc2ccc(N3CCCCC3)cc2)[nH]c2ccc(Cl)cc12 [Org27569]
bottom of the fit curve (phospho-ERK, percent of vehicle control) [1]: 111.3%±7.72%
effect on CP55,940-induced activation of ERK [1]: prevented CP55,940-induced activation of ERK
extent of antagonism of 2-AG-stimulated ERK activation [1]: did not completely attenuate
extent of antagonism of CP55,940-induced ERK activation [1]: fully antagonized
extent of antagonism of THC-induced ERK activation [1]: did not completely attenuate
pIC50±SE on ERK phosphorylation [1]: 6.78±0.273 and 6.783±0.273
effect on ERK phosphorylation, compound alone ([1]; 10.0 μM alone, 5-min incubation): small but nonsignificant reduction of ERK phosphorylation
effect on phospho-ERK levels in PTX-treated cells ([1]; Org27569 10.0 μM, 20 min, after overnight PTX (200 ng/mL)): not in PTX-treated cells
effect on basal ERK phosphorylation ([1]; Org27569 alone (10 μM), 20-min treatment, hCB1-transfected HEK293 cells, no PTX): significantly reduced basal ERK phosphorylation; also recorded: reduced basal ERK phosphorylation in hCB1-transfected; also recorded: produced a reduction in phospho-ERK levels in control cells
bottom of the fit curve (phospho-ERK, percent of vehicle control) ([1]; Org27569 concentration-response against 2-AG at EC80 (1.2 μM), 5 min): 196%±123.2%
pIC50±SE on ERK phosphorylation ([1]; no probe agonist (alone, basal ERK phosphorylation), 20 min): 6.86±0.214
IC50 ([1]; no probe agonist (alone, basal ERK phosphorylation), cells treated for 20 min): 139 nM
pIC50±SE on ERK phosphorylation ([1]; probe agonist 2-AG (1.2 μM, EC80), 5 min): 6.26±0.239
IC50 ([1]; probe agonist 2-AG (1.2 μM, EC80), cells treated for 5 min, read-out: IC50 on ERK phosphorylation): 546 nM
pIC50±SE on ERK phosphorylation ([1]; probe agonist THC (494 nM in table, 500 nM in text; EC80), 5 min): 6.38±0.394
IC50 ([1]; probe agonist THC (494 nM, EC80), cells treated for 5 min, read-out: IC50 on ERK phosphorylation): 417 nM
IC50 ([1]; read-out: IC50 on ERK phosphorylation): 165 nM
receptor internalization, compound alone (GFP-rat CB1 receptor; Org27569 10 μM alone): did not significantly affect receptor internalization
effect on CP55,940-induced receptor internalization (increases in puncta) (GFP-rat CB1 receptor; Org27569 10 μM with CP55,940 1 μM): prevented
effect on cytosolic phospho-ERK levels ([2]; cytosolic fraction): significantly decreased
effect on nuclear phospho-ERK levels ([2]; nuclear-enriched fraction): significantly decreased
effect on THC-induced ERK activation (CB1): no effect
effect on basal ERK phosphorylation [3]: not in hCB1-untransfected HEK293 cells

CCCCC/C=C\C/C=C\C/C=C\C/C=C\CCCC(=O)OC(CO)CO [2-AG, 2-arachidonoylglycerol]
EC80 for ERK activation ([1]; agonist alone, hCB1 HEK293 cells, 5 min): 1200 nM

From paper PMC5484173, “CB1 Allosteric Modulator Org27569 Is an Antagonist/Inverse Agonist of ERK1/2 Signaling” (Cannabis and Cannabinoid Research, 2016)
